Measured values: patent US20250100993A1, “2-SUBSTITUTED THIAZOLE HSD17B13 INHIBITORS AND USES THEREOF” (Inipharm, Inc., priority 2022, published 2025)

Experiments:
Format in all cases: biochemical
HSD17B13 = HSD17B13 (Homo sapiens (Human), UniProt Q7Z5P4); test: LC/MS estrone detection assay for HSD17B13 activity (estradiol to estrone); conditions: estradiol substrate, LCMS; read-out: HSD17B13 Inhibition_Estradiol Substrate_LCMS: Ki
Procedure, shortened: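 His-tagged E. coli-expressed enzyme (30 nM) with 4 μM estradiol and 6 mM NAD+ in potassium phosphate pH 7.4, 0.5% DMSO, 2 h at 26.5° C. Estrone formation quantified by LC-MS/MS against D4-estrone standard; activity as % of uninhibited, four-parameter fit, duplicates.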

HSD17B14 = HSD17B14 (Homo sapiens (Human), UniProt Q9BPX1); test: LC/MS estrone detection assay for HSD17B14 activity (estradiol to estrone); conditions: selectivity for HSD17B13 over HSD17B14
HSD17B14, sequence (Q9BPX1 whole entry): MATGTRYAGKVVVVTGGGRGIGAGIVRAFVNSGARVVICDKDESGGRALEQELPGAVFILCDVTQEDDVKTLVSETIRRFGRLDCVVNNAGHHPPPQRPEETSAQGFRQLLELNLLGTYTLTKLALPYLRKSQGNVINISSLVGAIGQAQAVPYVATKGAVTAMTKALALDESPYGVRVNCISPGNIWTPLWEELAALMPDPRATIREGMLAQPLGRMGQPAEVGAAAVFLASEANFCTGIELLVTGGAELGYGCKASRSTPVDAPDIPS
Description: The liquid chromatography/mass spectrometry (LC/MS) estrone detection assay monitors the conversion of estradiol to estrone by HSD17B14. This assay was undertaken in a 96 well plates (Eppendorf deep well), in an 80 μl reaction volume containing: 8 μM of estradiol (E2; Cayman); 4 mM NAD+(Sigma); 120 nM HSD17B14 enzyme (in-house E. coli expressed His-tagged, purified, soluble protein); 1M potassium phosphate buffer pH 7.4, and 1.2% vehicle (DMSO). Reactions were incubated for 2 hours at 37° C. Estradiol (E2) conversion to estrone (E1) was quantitated by LC-MS/MS based analyte detection for E1 using LCMS grade reagents.
Reactions were terminated by the addition of two volumes of acetonitrile (MeCN; LCMS grade) containing deuterated (D4)-E1 used as internal standard (Clear Synth; 500 ng/mL final concentration). Samples were applied to pre-prepared Bond Elut-C18 extraction cartridges (3 mL; Agilent). The cartridges were washed with 1.5 mL water followed by 1.5 mL 5% aqueous methanol, and dried for 5 minutes under vacuum. They were then eluted with 4.5 mL MeCN. The eluates were dried under nitrogen and re-suspended in 200 μL of 60% methanol (LCMS grade) before submission for analysis. Standard curves of E2 and E1 in 4% DMSO were included for quantification.
Analysis of samples was performed on a XBridge BEH C18 column (Waters) using 0.1% Diethyl Amine in MeCN (mobile phase A) and 0.1% Diethyl Amine in milli-Q water (mobile phase B) in a 3 min gradient from 0-25% B. Analytes were detected in negative mode using MRM analysis, with E2 having a RT of 1.89 min and E1 having a RT of 2.07 min. Activity of the enzyme in the absence of NAD+ was used to evaluate specificity of conversion. Enzyme activity in the presence of test samples was expressed as a percentage of the uninhibited enzyme in the presence of 1.2% DMSO vehicle only, and plotted versus inhibitor concentration. Non-linear regression was performed using a four-parameter logistic model and GraphPad Prism software. All assessments were undertaken in duplicate evaluations, which were pooled during the extraction process and subsequently injected as duplicates for LC-MS/MS analysis.

HSD17B2 = HSD17B2 (Homo sapiens (Human), UniProt P37059); test: HSD17B2 activity via detection of NADH product (NAD-Glo luminescence); conditions: selectivity for HSD17B13 over HSD17B2
HSD17B2, sequence (P37059 whole entry): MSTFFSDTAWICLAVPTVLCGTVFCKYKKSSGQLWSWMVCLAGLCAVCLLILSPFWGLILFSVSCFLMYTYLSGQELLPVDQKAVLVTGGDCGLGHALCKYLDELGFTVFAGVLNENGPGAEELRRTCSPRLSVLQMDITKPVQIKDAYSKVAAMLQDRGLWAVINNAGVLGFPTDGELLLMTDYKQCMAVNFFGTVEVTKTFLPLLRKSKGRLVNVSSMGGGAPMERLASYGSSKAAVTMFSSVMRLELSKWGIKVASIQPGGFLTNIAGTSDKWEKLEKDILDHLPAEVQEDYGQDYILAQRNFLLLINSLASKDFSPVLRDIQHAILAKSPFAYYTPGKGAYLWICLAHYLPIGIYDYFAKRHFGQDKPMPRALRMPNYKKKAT
Description: The fluorescence based detection assay monitors the conversion of the co-factor NAD^+ to NADH, which occurs coincident with the conversion of estradiol to estrone by HSD17B2. These assays were performed in 384 well plates (Greiner V-shape PP-microplate). The 20 μl reaction volume contained: 0.7 μM estradiol (E2); 6 mM NAD^+ (Sigma); 250 nM HSD17B2 enzyme (Origene; Cat #TP303293); 0.25 M potassium phosphate buffer pH 7.4, 0.75% vehicle (DMSO). Reactions were incubated for 2 hours at 37° C., and the reaction was stopped by freezing the reaction plates at −80° C. Zero time samples were frozen immediately.
The conversion of NAD^+ to NADH was quantitated using NAD-Glo kits (Promega; Cat #G9062) according to the manufacturers' instructions. A volume of 15 μL of enzyme reaction mixture was added to 15 μL of reconstituted Glo reagent, and the plates were incubated for 30 minutes at room temperature. Luminescence was quantitated on a Tecan Spark Reader®. A standard curve of NADH ([…]) in potassium phosphate buffer pH 7.4/1% DMSO was run on each plate.
Activity of the enzyme in the absence of E2 was used to evaluate specificity of conversion. Enzyme activity in the presence of test samples was expressed as a percentage of the uninhibited enzyme in the presence of 1% DMSO vehicle only, and was plotted versus inhibitor concentration. Non-linear regression was performed using a four-parameter logistic model and GraphPad Prism software. All assessments were undertaken in duplicate evaluations.

HSD17B13, sequence (Q7Z5P4 20-300): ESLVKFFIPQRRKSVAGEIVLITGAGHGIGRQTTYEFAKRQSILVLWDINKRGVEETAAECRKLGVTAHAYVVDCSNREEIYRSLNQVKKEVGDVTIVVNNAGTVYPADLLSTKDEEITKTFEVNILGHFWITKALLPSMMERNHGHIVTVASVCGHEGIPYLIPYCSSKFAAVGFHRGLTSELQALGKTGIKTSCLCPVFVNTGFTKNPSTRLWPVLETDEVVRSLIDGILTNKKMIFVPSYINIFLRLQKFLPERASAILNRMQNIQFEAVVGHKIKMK

O=C(Nc1sc(-c2cccnc2)nc1C(=O)NCc1ccccc1C(F)(F)F)c1cc(Cl)c(O)c(Cl)c1 [Example 61]
Ki (HSD17B13): ≤ 50 nM
HSD17B14 fold selectivity (HSD17B14): >397 fold
HSD17B2 fold selectivity (HSD17B2): 64 fold

O=C(Nc1sc(-c2ccccc2F)nc1C(=O)NCc1ccccc1C(F)(F)F)c1cc(F)c(O)c(Cl)c1 [Example 64]
Ki (HSD17B13): ≤ 50 nM
HSD17B14 fold selectivity (HSD17B14): >855 fold
HSD17B2 fold selectivity (HSD17B2): 115 fold

Cn1cc(-c2nc(C(=O)NCc3ccccc3C(F)(F)F)c(NC(=O)c3cc(Cl)c(O)c(Cl)n3)s2)cn1 [Example 66]
Ki (HSD17B13): 50 to 100 nM
HSD17B2 fold selectivity (HSD17B2): 36 fold

CS(=O)(=O)c1ccc(-c2nc(C(=O)NCc3ccccc3C(F)(F)F)c(NC(=O)c3cc(Cl)c(O)c(Cl)c3)s2)cc1 [Example 104]
Ki (HSD17B13): ≤ 50 nM
HSD17B14 fold selectivity (HSD17B14): 357 fold
HSD17B2 fold selectivity (HSD17B2): 444 fold

O=C(Nc1sc(-c2cncc(F)c2)nc1C(=O)NCc1ccccc1C(F)(F)F)c1cc(F)c(O)c(Cl)c1 [Example 90]
Ki (HSD17B13): ≤ 50 nM
HSD17B14 fold selectivity (HSD17B14): >797 fold
HSD17B2 fold selectivity (HSD17B2): 107 fold

N#Cc1cccc(-c2nc(C(=O)NCc3ccccc3C(F)(F)F)c(NC(=O)c3cc(F)c(O)c(Cl)c3)s2)c1 [Example 96]
Ki (HSD17B13): ≤ 50 nM
HSD17B14 fold selectivity (HSD17B14): >2000 fold
HSD17B2 fold selectivity (HSD17B2): 985 fold

CS(=O)(=O)c1ccccc1-c1nc(C(=O)NCc2ccccc2C(F)(F)F)c(NC(=O)c2cc(Cl)c(O)c(Cl)c2)s1 [Example 91]
Ki (HSD17B13): 50 to 100 nM
HSD17B14 fold selectivity (HSD17B14): 76 fold
HSD17B2 fold selectivity (HSD17B2): 24 fold

CN(C)Cc1ccc(F)c(-c2nc(C(=O)NCc3ccccc3C(F)(F)F)c(NC(=O)c3cc(F)c(O)c(Cl)c3)s2)c1 [Example 94]
Ki (HSD17B13): ≤ 50 nM
HSD17B14 fold selectivity (HSD17B14): >1250 fold
HSD17B2 fold selectivity (HSD17B2): 1270 fold

O=C(Nc1sc(C2=CCCCC2)nc1C(=O)NCc1ccccc1C(F)(F)F)c1cc(Cl)c(O)c(Cl)n1 [Example 88]
Ki (HSD17B13): ≤ 50 nM
HSD17B2 fold selectivity (HSD17B2): 53 fold

CS(=O)(=O)c1ccc(-c2nc(C(=O)NCc3ccccc3C(F)(F)F)c(NC(=O)c3cc(Cl)c(O)c(Cl)n3)s2)cc1 [Example 73]
Ki (HSD17B13): ≤ 50 nM
HSD17B14 fold selectivity (HSD17B14): >646 fold
HSD17B2 fold selectivity (HSD17B2): 175 fold

O=C(Nc1sc(-c2cncnc2)nc1C(=O)NCc1ccccc1C(F)(F)F)c1cc(Cl)c(O)c(Cl)n1 [Example 68]
Ki (HSD17B13): 50 to 100 nM
HSD17B2 fold selectivity (HSD17B2): 48 fold

CS(=O)(=O)c1ccccc1-c1nc(C(=O)NCc2ccccc2C(F)(F)F)c(NC(=O)c2cc(Cl)c(O)c(Cl)n2)s1 [Example 92]
Ki (HSD17B13): 50 to 100 nM
HSD17B14 fold selectivity (HSD17B14): >215 fold
HSD17B2 fold selectivity (HSD17B2): 44 fold

O=C(Nc1sc(-c2ccccc2Cl)nc1C(=O)NCc1ccccc1C(F)(F)F)c1cc(Cl)c(O)c(Cl)c1 [Example 65]
Ki (HSD17B13): ≤ 50 nM
HSD17B2 fold selectivity (HSD17B2): 225 fold

O=C(Nc1sc(N2CCS(=O)(=O)CC2)nc1C(=O)NCc1ccccc1C(F)(F)F)c1cc(Cl)c(O)c(Cl)n1 [Example 78, 5-(4,6-dichloro-5-hydroxypicolinamido)-2-(1,1-dioxidothiomorpholino)-N-(2-(trifluoromethyl)benzyl)thiazole-4-carboxamide]
Ki (HSD17B13): 50 to 100 nM
HSD17B14 fold selectivity (HSD17B14): >180 fold
HSD17B2 fold selectivity (HSD17B2): 10 fold

O=C(Nc1sc(-c2ccccc2F)nc1C(=O)NCc1ccccc1C(F)(F)F)c1cc(Cl)c(O)c(Cl)c1 [Example 63]
Ki (HSD17B13): ≤ 50 nM
HSD17B2 fold selectivity (HSD17B2): 192 fold

O=C(Nc1sc(-c2ccccc2)nc1C(=O)NCc1ccccc1C(F)(F)F)c1cc(Cl)c(O)c(Cl)c1 [Example 62]
Ki (HSD17B13): ≤ 50 nM
HSD17B2 fold selectivity (HSD17B2): 204 fold

N#Cc1cccc(-c2nc(C(=O)NCc3ccccc3C(F)(F)F)c(NC(=O)c3cc(Cl)c(O)c(Cl)c3)s2)c1 [Example 95]
Ki (HSD17B13): ≤ 50 nM
HSD17B14 fold selectivity (HSD17B14): >1640 fold
HSD17B2 fold selectivity (HSD17B2): 2150 fold

O=C(Nc1sc(-c2ccncc2)nc1C(=O)NCc1ccccc1C(F)(F)F)c1cc(Cl)c(O)c(Cl)n1 [Example 70]
Ki (HSD17B13): ≤ 50 nM
HSD17B2 fold selectivity (HSD17B2): 107 fold

O=C(Nc1sc(-c2ccccc2Cl)nc1C(=O)NCc1ccccc1C(F)(F)F)c1cc(Cl)c(O)c(Cl)n1 [Example 67]
Ki (HSD17B13): ≤ 50 nM
HSD17B2 fold selectivity (HSD17B2): 513 fold
